Paper PMC5986712, “Aminobenzothiazole derivatives stabilize the thermolabile p53 cancer mutant Y220C and show anticancer activity in p53-Y220C cell lines” (European Journal of Medicinal Chemistry, 2018)

Key:
p53 cancer mutant Y220C = settings: cited from earlier work
[1] = tested on: WI38 cells (non-cancerous fibroblast, p53 WT); experiment: Cell viability assay, WI38; settings: Homo sapiens, WI-38, 72 h, read-out: IC50 WI38
Procedure: (§5) All cell lines were cultured as previously described [9]. Cell viability was measured in quadruplicate (technical replicates) using the CellTiter-Fluor or CellTiter-Glo 2.0 cell viability assay kits (Promega, USA) as previously described [9].

BXPC-3 cells (p53-Y220C) = experiment: Cell viability assay, BXPC3; settings: BXPC-3, 72 h; for IC50: Homo sapiens, read-out: IC50 BXPC3
Procedure: as §5

[2] = tested on: NUGC4 cells (wild-type p53); experiment: Cell viability assay, NUGC4; type: cell-based; settings: Homo sapiens, NUGC-4; 72 h, p53 WT
Procedure: (§1) We also envisaged that masking the carboxylate of MB710 as a simple ethylamide MB725 might influence cell permeability and uptake of the scaffold.
(§2) All cell lines were cultured as previously described. Cell viability was measured in quadruplicate (technical replicates) using the CellTiter-Fluor or CellTiter-Glo 2.0 cell viability assay kits (Promega, USA) as previously described.

NUGC3 cells (p53-Y220C) = experiment: Cell viability assay (CellTiter-Fluor / CellTiter-Glo 2.0), NUGC3; type: cell-based, human; settings: for IC50: Homo sapiens, NUGC-3, 72 h, Y220C cell line
Procedure: as §1, §2

[3] = molecular target: T1, stabilized p53-Y220C DBD (residues 94–312) (Homo sapiens, UniProt P04637, M133L/N239Y/N268D/V203A/Y220C); experiment: Differential scanning fluorimetry (DSF), thermal stabilization of Y220C; type: binding; settings: 8 μM protein, 10 × SYPRO Orange, 250 μM ligand
T1 construct: Stabilized p53-Y220C DBD (residues 94–312) was expressed and purified; 6xHis / lipoyl domain / TEV protease cleavage site (N, cleaved yes); made in house; host or cells: E. coli C41
Procedure: DSF was performed as described. […] All samples were measured in triplicate.

15N-labeled T-p53C-Y220C = molecular target: T2, 15N-labeled T-p53C-Y220C (Homo sapiens, UniProt P04637, M133L/N239Y/N268D/V203A/Y220C); experiment: 1H/15N-HSQC NMR titration; type: binding; settings: average of at least three fits of shifted peaks
T2 construct: Stabilized p53-Y220C DBD (residues 94–312) was expressed and purified; 6xHis / lipoyl domain / TEV protease cleavage site (N, cleaved yes); made in house; host or cells: E. coli C41
Excerpt: Compound stock solutions were mixed with protein immediately before the NMR measurement.

[4] = tested on: HUH-7 and HUH-7 p53-Y220C KO cells; experiment: Cell viability, HUH-7 versus isogenic HUH-7 p53-Y220C KO; type: cell-based, human; settings: 72 h
Excerpt: (§3) To confirm that MB725 mediated anticancer effects are dependent on p53-Y220C, we additionally tested the compound in HUH-7 and an in-house CRISPR generated isogenic p53-Y220C knock-out (KO) HUH-7 cell line (Fig. 8). This new cell line contains a frameshift mutation at codon 124 on one allele and deletion of amino acids 125–223 on the other allele, leading to functional inactivation of the p53 DNA-binding domain (aa 92–292). MB725 decreased cell viability by ca. 30–40% more potently in HUH-7 than in the isogenic HUH-7 p53-Y220C KO (Fig. 8, upper panel).
Fig. 8 Assessment of p53-Y220C dependent effect of MB725. Treatment of HUH-7 (p53-Y220C) and HUH-7 p53-Y220C KO cell lines with MB725 for 72 h underscores the enhanced cytotoxicity of MB725 in the presence of p53-Y220C (left panel). […] Cell viability was measured in quadruplicate and normalized against the values of blank (viability = 1) and no cell (viability = 0) controls (left panel). […] Relative mRNA fold-change was measured in triplicate and normalized against untreated sample according to the ΔΔCt method. […]
(§4) WI-38 and BXPC-3 (p53-Y220C) cell lines were purchased from ATCC and HUH-7 (p53-Y220C+/+), HUH-6 (wild-type p53+/+). […] Cell viability was measured in quadruplicate (technical replicates) using the CellTiter-Fluor or CellTiter-Glo 2.0 cell viability assay kits (Promega, USA) as previously described. […]

SW1088 cells (p53-R273C) = experiment: Cell viability assay, SW1088; settings: Homo sapiens, SW1088, 72 h, read-out: IC50 SW1088
Procedure: as §5

[5] = molecular target: T1, stabilized p53-Y220C DBD (residues 94–312); experiment: Isothermal titration calorimetry (ITC); type: binding
Procedure: Isothermal Titration Calorimetry (ITC). ITC experiments were conducted as described. The cell unit contained 50 μM protein in a 25 mM KPi (pH 7.2), 150 mM NaCl, 1 mM TCEP, and 5% (v/v) DMSO assay buffer. The syringe contained 2–5 mM compound in the same buffer.

[6] = tested on: NUGC4, HUH-6, NUGC3, HUH-7, SW1088, BXPC-3, WI38 cells; experiment: Cell viability across all cell lines tested; type: cell-based, human; settings: 72 h treatment; 60 and MB710: at concentrations up to 60 μM
Procedure: as §1, §2

[7] = tested on: p53 target genes in HUH-7 and HUH-7 p53-Y220C KO cells; experiment: Real-time PCR of p53 target genes, HUH-7 versus HUH-7 p53-Y220C KO; type: cell-based, human; settings: 18 h
Excerpt: as §3
Fig. 8 Assessment of p53-Y220C dependent effect of MB725. Treatment of HUH-7 (p53-Y220C) and HUH-7 p53-Y220C KO cell lines with MB725 for 72 h underscores the enhanced cytotoxicity of MB725 in the presence of p53-Y220C (left panel). […] Cell viability was measured in quadruplicate and normalized against the values of blank (viability = 1) and no cell (viability = 0) controls (left panel). Data are shown as mean ± SEM (Unpaired t-test to test for significance in HUH7 and HUH7 p53 KO viability reduction; *p < 0.05; **p < 0.01; ***p < 0.001). Relative mRNA fold-change was measured in triplicate and normalized against untreated sample according to the ΔΔCt method. […]
Real-time PCR experiments were performed as described. […] The ΔΔCt method was used to quantify relative mRNA levels. Each sample was measured in triplicate.

[8] = Cell viability in other cell lines (lacking Y220C); type: cell-based; settings: human, at concentrations below 40 μM
Excerpt: We expected our compounds to show a strong cell viability reduction in cancer cell lines containing the Y220C mutation (NUGC3, HUH-7, BXPC-3), while showing relatively low or no effect on cell lines lacking this mutation (all others). We also envisaged that masking the carboxylate of MB710 as a simple ethylamide MB725 might influence cell permeability and uptake of the scaffold. […] In particular, NUGC3 was the most sensitive cell line.
Fig. 6 Effects of Y220C binders on cancer cell viability. Relative cell viability (Y-axis) of representative cell lines after 72 h treatment with increasing concentrations (X-axis, μM) of 60 (A), MB710 (B), MB725 (C), and previously reported lead compounds PK083 (D), PK7088 (E) and PK5196 (F). The cell line employed in each experiment and their respective p53 status are shown. […] Cell viability was measured in quadruplicate and normalized against the values of blank (viability = 1) and no cell (viability = 0) controls. Data are shown as mean ± SEM.
as §4

[9] = Solubility (qualitative observation); type: physicochemical
HUH-7 cells (p53-Y220C) = experiment: Cell viability assay, HUH7; type: cell-based, human
Procedure: as §1, §2

SMILES | IC50 [1] | IC50 (BXPC-3 cells (p53-Y220C)) | IC50 [2] | IC50 (NUGC3 cells (p53-Y220C)) | ΔTm at 250 µM [3] | IC50 (SW1088 cells (p53-R273C)) | further results
CCn1c2ccccc2c2cc(CNC)ccc21 [Compound 1] | 22 µM | 43 µM | 9 µM | 14 µM |  |  | Kd (p53 cancer mutant Y220C): 140 µM
CCCCOc1cc(C(=O)O)c(O)c(I)c1-n1cccc1 [Compound 52, 5-butoxy-2-hydroxy-3-iodo-4-(1H-pyrrol-1-yl)benzoic acid] |  |  |  |  | 1.4 °C |  | Kd (15N-labeled T-p53C-Y220C): 30 µM
CCN(CC)c1nc2c(C(=O)O)c(O)c(I)c(-n3cccc3)c2s1 [Compound 70, 2-(diethylamino)-5-hydroxy-6-iodo-7-(1H-pyrrol-1-yl)benzo[d]thiazole-4-carboxylic acid] | > 120 µM |  | ~120 µM | 90 µM | 2 °C | > 120 µM | viability reduction HUH-7 versus HUH-7 p53-Y220C KO (in words) ([4]; at higher compound concentration than MB725): stronger viability reduction in HUH-7 cells than in HUH-7 p53-Y220C KO cells; Kd ([5]; ITC): 4 µM; fold increase in affinity compared to starting fragment 4 ([5]; Kd ratio): 200 fold; toxicity and selectivity across cell lines (in words) [6]: relatively low toxicity against all cell lines tested
CCNC(=O)c1c(O)c(I)c(-n2cccc2)c2sc(N(CC)CC)nc12 [Compound 72, 2-(diethylamino)-N-ethyl-5-hydroxy-6-iodo-7-(1H-pyrrol-1-yl)benzo[d]thiazole-4-carboxamide] | > 120 µM | 18 µM | > 120 µM | 10 µM |  | > 120 µM | increase of mRNA levels of p53 target genes (PUMA (BBC3), p21, MDM2, NOXA, BAX) [7]: more efficiently in HUH-7 than in HUH-7 p53-Y220C KO; viability at 72 h [8]: > 80%; solubility (in words) [9]: reduced solubility; cell viability decreased more potently in HUH-7 than in isogenic HUH-7 p53-Y220C KO [4]: 30–40%; cell viability (HUH-7 cells (p53-Y220C); HUH-7, 72 h, at concentrations below 40 μM): 30%; IC50 (HUH-7 cells (p53-Y220C); Homo sapiens, Huh-7, 72 h, Y220C cell line): 10 µM; cell viability (BXPC-3 cells (p53-Y220C); at concentrations below 40 μM): 30%; concentration at which an almost maximum effect was achieved (NUGC3 cells (p53-Y220C); NUGC3, 72 h): below 10 μM; cell viability (NUGC3 cells (p53-Y220C); NUGC3, 72 h, at concentrations below 40 μM): 10%
